From patent US7365231B2, “Compound with antitumor activity and preparation method therefor” (National Taiwan University of Science & Technology, priority 2005, dated 2008)

Legend:
Assay in all cases: NCI panel growth inhibition, sulforhodamine B
786-0 = assay type: cell-based; settings: Homo sapiens; 786-0, Renal cancer; drug for last 48 h of 72 h
Description: (§1) Comparison of anticancer activities of the 1,3-substituted adamantane derivatives, 1,3-bis(4-aminophenyl)adamantane (1,3-DPANH2), 1,3-bis(4-(4-aminophenoxy)phenyl)adamantane (1,3-DPAONH2), 1,3-bis(4-(4-amino-3-hydroxy)phenyl)adamantane (1,3-DPA/OH/NH2) and 1,3-bis(4-(4-amino-2-trifluoromethylphenoxy)phenyl)adamantane (1,3-DPA/CF3/NH2) as shown in FIG. 1 were synthesized in the present invention. Those compounds were submitted to the National Cancer Institute for anticancer assay in culture against a standard panel of cell lines. […] To further confirm that the different substituents (CF3 and OH) on the phenyl ring of 1,3-DPAONH2 affect the growth inhibition of cancer cells. […] The transformations of 1,3-DPAONH2 to 1,3-DPA/OH/NH2 led to a remarked enhancement of anticancer activity toward all the tested cancer lines. The role of the OH group at the ortho position of the NH2 on growth inhibition is remarkable. In addition, one compound (1,3-DPA/OH/NH2) was confirmed to have an IC50 of <1 μM against one of the cells (BT-549 breast carcinoma). Comparison of anticancer activities of 1,3-substituted diaminophenyladamantane derivatives, the following order of potency against the tested cancer lines was observed: 1,3-DPA/OH/NH2>1,3-DPAONH2>1,3-DPANH2>1,3-DPA/CF3/NH2.

A498 = assay type: cell-based; settings: Homo sapiens; A498, Renal cancer; drug for last 48 h of 72 h
Description: as §1

COLO 205 = assay type: cell-based; settings: Homo sapiens; COLO 205, Colon cancer; drug for last 48 h of 72 h
Description: as §1

DU-145 = assay type: cell-based; settings: Homo sapiens; DU-145, Prostate cancer; drug for last 48 h of 72 h
Description: as §1

EKVX = assay type: cell-based; settings: Homo sapiens, NSCLC, drug for last 48 h of 72 h
Description: as §1

HCT-15 = assay type: cell-based; settings: Homo sapiens; HCT-15, Colon cancer; drug for last 48 h of 72 h
Description: as §1

HOP-62 = assay type: cell-based; settings: Homo sapiens; HOP-62, NSCLC; drug for last 48 h of 72 h
Description: as §1

K-562 = assay type: cell-based; settings: Homo sapiens, K562; K-562, Leukemia; drug for last 48 h of 72 h
Description: as §1

KM12 = assay type: cell-based; settings: Homo sapiens, KM12, KM12, Colon cancer; drug for last 48 h of 72 h
Description: as §1

MCF-7 = assay type: cell-based; settings: Homo sapiens, MCF7; MCF-7, Breast cancer; drug for last 48 h of 72 h
Description: as §1

MDA-MB-435 = assay type: cell-based; settings: Homo sapiens; MDA-MB-435, Breast cancer; drug for last 48 h of 72 h
Description: as §1

MDA-N = assay type: cell-based; settings: Homo sapiens, Breast cancer, drug for last 48 h of 72 h
Description: as §1

MOLT-4 = assay type: cell-based; settings: Homo sapiens; MOLT-4, Leukemia; drug for last 48 h of 72 h
Description: as §1

NCI-H23 = assay type: cell-based; settings: Homo sapiens; NCI-H23, NSCLC; drug for last 48 h of 72 h
Description: as §1

OVCAR-3 = assay type: cell-based; settings: Homo sapiens; OVCAR-3, Ovarian cancer; drug for last 48 h of 72 h
Description: as §1

OVCAR-4 = assay type: cell-based; settings: Homo sapiens; OVCAR-4, Ovarian cancer; drug for last 48 h of 72 h
Description: as §1

OVCAR-8 = assay type: cell-based; settings: Homo sapiens; OVCAR-8, Ovarian cancer; drug for last 48 h of 72 h
Description: as §1

PC-3 = assay type: cell-based; settings: Homo sapiens; PC-3, Prostate cancer; drug for last 48 h of 72 h
Description: as §1

SK-MEL-28 = assay type: cell-based; settings: Homo sapiens; SK-MEL-28, Melanoma; drug for last 48 h of 72 h
Description: as §1

SK-MEL-2 = assay type: cell-based; settings: Homo sapiens; SK-MEL-2, Melanoma; drug for last 48 h of 72 h
Description: as §1

SK-MEL-5 = assay type: cell-based; settings: Homo sapiens; SK-MEL-5, Melanoma; drug for last 48 h of 72 h
Description: as §1

SN12C = assay type: cell-based; settings: Homo sapiens, Renal cancer, drug for last 48 h of 72 h
Description: as §1

SW-620 = assay type: cell-based; settings: Homo sapiens; SW-620, Colon cancer; drug for last 48 h of 72 h
Description: as §1

UACC-62 = assay type: cell-based; settings: Homo sapiens; UACC-62, Melanoma; drug for last 48 h of 72 h
Description: as §1

BT-549 = assay type: cell-based, human; settings: drug for last 48 h of 72 h
Description: as §1

NCI/ADR-RES = assay type: cell-based, human; settings: Breast cancer, drug for last 48 h of 72 h
Description: as §1

SF-295 = assay type: cell-based, human; settings: drug for last 48 h of 72 h
Description: as §1

CCRF-CEM = assay type: cell-based; settings: Homo sapiens, Leukemia, drug for last 48 h of 72 h
Description: as §1

OVCAR-5 = assay type: cell-based; settings: Homo sapiens; OVCAR-5, Ovarian cancer; drug for last 48 h of 72 h
Description: as §1

[1] = Homo sapiens, BT-549, BT-549, Breast cancer
[2] = Homo sapiens, SF-295, SF-295, CNS cancer

Row | Compound | IC50 (A498) | IC50 (EKVX) | IC50 (HCT-15) | IC50 (HOP-62) | IC50 (K-562) | IC50 (MCF-7) | IC50 (MDA-N) | IC50 (MOLT-4) | IC50 (NCI-H23) | IC50 (OVCAR-3) | IC50 (OVCAR-4) | IC50 (OVCAR-8) | IC50 (SK-MEL-28) | IC50 (SK-MEL-2) | IC50 (SN12C) | IC50 (SW-620) | IC50 (UACC-62) | IC50 (BT-549; [1]) | IC50 (NCI/ADR-RES; Homo sapiens) | IC50 (SF-295; [2]) | further results
1 | Nc1ccc(Oc2ccc(C34CC5CC(C3)CC(c3ccc(Oc6ccc(N)c(O)c6)cc3)(C5)C4)cc2)cc1O [1,3-DPA/OH/NH2, 1,3-bis-(4-(4-amino-3-hydroxyphenoxy)phenyl)adamantane] | 4.54 µM | 1.68 µM | 1.76 µM | 5.53 µM | 3.46 µM | 1.85 µM | 1.58 µM | 2.42 µM | 1.86 µM | 1.85 µM | 2.02 µM | 2.03 µM | 2.74 µM | 2.45 µM | 1.74 µM | 2.89 µM | 2.65 µM | < 1 µM | 2.32 µM | 2.29 µM | IC50 (786-0): 2.83 µM; IC50 (COLO 205): 1.84 µM; IC50 (DU-145): 1.72 µM; IC50 (KM12): 1.72 µM; IC50 (MDA-MB-435): 1.92 µM; IC50 (PC-3): 1.94 µM; IC50 (SK-MEL-5): 1.88 µM; IC50 (BT-549; BT-549, Breast cancer): 0.565 µM
2 | Nc1ccc(Oc2ccc(C3(c4ccc(Oc5ccc(N)cc5)cc4)C4CC5CC(C4)CC3C5)cc2)cc1 [2,2-DPAONH2, 2,2-bis(4-(4-aminophenoxy)phenyl)adamantane] | 2.91 µM | 4.76 µM | 4.94 µM | 11.8 µM | 3.89 µM | 3.81 µM | 2.74 µM | 4.27 µM | 5.15 µM | 2.58 µM | 6.96 µM | 5.82 µM | 10.5 µM | 16.8 µM | 3.65 µM | 5.03 µM | 17.7 µM | 4.28 µM | 15.8 µM | 6.76 µM | IC50 (786-0): 3.07 µM; IC50 (CCRF-CEM): 3.03 µM; IC50 (COLO 205): 2.71 µM; IC50 (DU-145): 3.31 µM; IC50 (KM12): 3.55 µM; IC50 (MDA-MB-435): 6.04 µM; IC50 (OVCAR-5): 15.3 µM; IC50 (PC-3): 6.75 µM; IC50 (SK-MEL-5): 8.38 µM
3 | Nc1ccc(C23CC4CC(C2)CC(c2ccc(N)cc2)(C4)C3)cc1 [1,3-DPANH2, 1,3-bis(4-aminophenyl)adamantane] | 15.7 µM | 36.6 µM | 14.5 µM | 60 µM | 14.6 µM | 31.9 µM | 37.7 µM | 11.3 µM | 59.6 µM | 48.5 µM | 10.2 µM | 85.1 µM | 15 µM | 35.9 µM | 25.1 µM | 3.14 µM | 29 µM | 42.8 µM | 56.8 µM | 16.4 µM | IC50 (786-0): 38.5 µM; IC50 (CCRF-CEM): 15.7 µM; IC50 (COLO 205): 2.3 µM; IC50 (DU-145): 51.2 µM; IC50 (KM12): > 100 µM; IC50 (OVCAR-5): 27.6 µM; IC50 (SK-MEL-5): 13.1 µM
4 | Nc1ccc(C2(c3ccc(N)cc3)C3CC4CC(C3)CC2C4)cc1 [2,2-DPANH2, 2,2-bis(4-aminophenyl)adamantane] | 21 µM | 16.4 µM | 21.9 µM | 13.6 µM | 10.3 µM | 19.4 µM | 18.6 µM | 4.96 µM | 19.9 µM | 10.9 µM | 14.3 µM | 7.73 µM | 14.9 µM | 18.5 µM | 18.6 µM | 11.4 µM | 16.3 µM | 11.2 µM | < 0.1 µM | < 0.1 µM | IC50 (CCRF-CEM): 3.76 µM; IC50 (MDA-MB-435): 14.7 µM; IC50 (OVCAR-5): 15.8 µM; IC50 (PC-3): 14.9 µM; IC50 (NCI/ADR-RES): 0.079 µM; IC50 (SF-295; SF-295, CNS cancer): 0.059 µM
